Results: patent US20260034094A1, “COMPOSITIONS AND METHODS FOR INDUCING FERROPTOSIS” (Kojin Therapeutics, Inc., priority 2022, published 2026)

Legend:
human recombinant GCL = human recombinant GCL (Homo sapiens (Human), UniProt P48506); assay: GCL enzyme profiling assay (ADP-Glo luminescence); assay type: biochemical; conditions: human recombinant GCL, ADP-Glo; read-out: GCL IC50
Summary of the method: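 ADP-Glo luminescence readout; 5 nM enzyme preincubated 1 h at 22 °C with 0.6 mM ATP, then started with 1 mM glutamate and 1.2 mM α-aminobutyrate, stopped after 2 h. Buffer: HEPES pH 7.5, MgCl2, DTT, BSA, 0.2% F-127, 1% DMSO. IC50 from four-parameter logistic fit.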

RKN cells = assay: RKN cell profiling assay (cell viability, CellTiter-Glo); assay type: cell-based; conditions: cell viability, read-out: Cell Killing EC50
Summary of the method: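 Cells seeded at 1,000/well in F-12 with 10% FBS, left to adhere 24 h, then compound-treated for 96 h at 0.5% final DMSO. Viability by CellTiter-Glo luminescence; EC50 from four-parameter logistic fit. Ferroptosis rescue runs included 1.5 μM ferrostatin-1 added at seeding.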

Chain of human recombinant GCL (P48506 whole entry): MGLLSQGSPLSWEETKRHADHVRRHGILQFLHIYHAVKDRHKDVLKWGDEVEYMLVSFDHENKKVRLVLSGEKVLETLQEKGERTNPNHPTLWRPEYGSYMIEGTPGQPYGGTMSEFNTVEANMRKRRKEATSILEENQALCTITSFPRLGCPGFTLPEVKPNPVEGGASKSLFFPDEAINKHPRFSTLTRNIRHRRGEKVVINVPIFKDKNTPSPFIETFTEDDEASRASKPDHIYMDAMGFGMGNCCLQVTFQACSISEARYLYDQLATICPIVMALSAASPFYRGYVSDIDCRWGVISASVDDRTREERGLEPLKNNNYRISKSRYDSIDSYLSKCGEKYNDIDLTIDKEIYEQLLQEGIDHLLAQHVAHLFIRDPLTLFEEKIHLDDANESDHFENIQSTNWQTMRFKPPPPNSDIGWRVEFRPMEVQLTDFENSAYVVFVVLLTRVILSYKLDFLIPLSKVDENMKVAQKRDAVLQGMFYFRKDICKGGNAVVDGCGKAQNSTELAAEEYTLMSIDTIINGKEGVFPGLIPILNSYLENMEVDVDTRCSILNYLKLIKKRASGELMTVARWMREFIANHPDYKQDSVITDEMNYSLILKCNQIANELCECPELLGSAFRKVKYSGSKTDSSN

Row | Structure (SMILES) | IC50 (human recombinant GCL) | EC50 (RKN cells)
1 | N[C@@H](CCS(=O)(=O)CCC(O)(c1cc2ccccc2cn1)C(F)(F)F)C(=O)O (stereo partly drawn) [Compound 332, (2S)-2-amino-4-((4,4,4-trifluoro-3-hydroxy-3-(isoquinolin-3-yl)butyl)sulfonyl)butanoic acid] | 20 to 2000 µM | ≥ 1 mM
2 | N=S(=O)(CC[C@H](N)C(=O)O)CCC(O)(C(=O)O)C(F)(F)F (some centres unmarked) [Compound 333] | 20 to 2000 µM | ≥ 1 mM
3 | N=S(=O)(CC[C@H](N)C(=O)O)CCC(O)(c1ccc(Oc2ccccc2)cc1)C(F)(F)F (some centres unmarked) [Compound 334] | ≤ 20 µM | < 1 mM
4 | N=S(=O)(CCCC(O)(c1ccc(-c2ccccc2)cc1)C(F)(F)F)CC[C@H](N)C(=O)O (some centres unmarked) [Compound 335] | 20 to 2000 µM | ≥ 1 mM
5 | N=S(=O)(CC[C@H](N)C(=O)O)CCC(O)(c1ccc(C(F)(F)F)cc1)C(F)(F)F (some centres unmarked) [Compound 338] | ≤ 20 µM | ≥ 1 mM
6 | N=S(=O)(CC[C@H](N)C(=O)O)CCC(O)(c1nc2ccccc2[nH]1)C(F)(F)F (some centres unmarked) [Compound 343] | 20 to 2000 µM | < 1 mM
7 | N=S(=O)(CC[C@H](N)C(=O)O)CCC(O)(c1nccs1)C(F)(F)F (some centres unmarked) [Compound 344] | ≤ 20 µM | < 1 mM
8 | N=[S@@](=O)(CC[C@H](N)C(=O)O)CC[C@@](O)(c1ccccc1)C(F)(F)F [Compound 347, (S)-2-amino-4-((R,3R)-4,4,4-trifluoro-3-hydroxy-3-phenylbutylsulfonimidoyl)butanoic acid] | ≤ 20 µM | < 1 mM
9 | N=[S@@](=O)(CC[C@H](N)C(=O)O)CC[C@](O)(c1ccccc1)C(F)(F)F [Compound 348, (S)-2-amino-4-((R,3S)-4,4,4-trifluoro-3-hydroxy-3-phenylbutylsulfonimidoyl)butanoic acid] | ≤ 20 µM | < 1 mM
10 | N=S(=O)(CC[C@H](N)C(=O)O)CCC(O)(C1CC1)C(F)(F)F (stereo partly drawn) [Compound 349, (2S)-2-amino-4-(3-cyclopropyl-4,4,4-trifluoro-3-hydroxybutylsulfonimidoyl)butanoic acid] | 20 to 2000 µM | < 1 mM
11 | N=S(=O)(CC[C@H](N)C(=O)O)CCC(O)(c1ccccn1)C(F)(F)F (stereo partly drawn) [Compound 350, (2S)-2-amino-4-(4,4,4-trifluoro-3-hydroxy-3-(pyridin-2-yl)butylsulfonimidoyl)butanoic acid] | ≤ 20 µM | < 1 mM
12 | N[C@@H](CCS(=O)(=O)CCC(O)(c1ccccn1)C(F)(F)F)C(=O)O (stereo partly drawn) [Compound 351, (2S)-2-amino-4-((4,4,4-trifluoro-3-hydroxy-3-(pyridin-2-yl)butyl)sulfonyl)butanoic acid] | ≤ 20 µM | ≥ 1 mM
13 | CCC(O)(CCS(=N)(=O)CC[C@H](N)C(=O)O)C(F)(F)F (some centres unmarked) [Compound 352] | 20 to 2000 µM | < 1 mM
14 | CC(C)C(O)(CCS(=N)(=O)CC[C@H](N)C(=O)O)C(F)(F)F (some centres unmarked) [Compound 353] | ≤ 20 µM | ≥ 1 mM
15 | N=S(=O)(CC[C@H](N)C(=O)O)CCC(O)(Cc1ccccc1)C(F)(F)F (some centres unmarked) [Compound 354] | 20 to 2000 µM | ≥ 1 mM
16 | N=S(=O)(CC[C@H](N)C(=O)O)CCC(O)(C1CCCCC1)C(F)(F)F (some centres unmarked) [Compound 355] | 20 to 2000 µM | ≥ 1 mM
17 | N=S(=O)(CC[C@H](N)C(=O)O)CCC(O)(C1CCCC1)C(F)(F)F (some centres unmarked) [Compound 356] | 20 to 2000 µM | ≥ 1 mM
18 | N=S(=O)(CC[C@H](N)C(=O)O)CCC(O)(C1CCC1)C(F)(F)F (some centres unmarked) [Compound 357] | ≤ 20 µM | ≥ 1 mM
19 | N=S(=O)(CC[C@H](N)C(=O)O)CCC(O)(c1ncc(-c2ccccc2)[nH]1)C(F)(F)F (some centres unmarked) [Compound 358] | ≤ 20 µM | < 1 mM
20 | N=S(=O)(CC[C@H](N)C(=O)O)CCC(O)(C(F)(F)F)C12CC(C1)C2 (some centres unmarked) [Compound 359] | 20 to 2000 µM | ≥ 1 mM
21 | N=S(=O)(CC[C@H](N)C(=O)O)CCC(O)(c1cc2cc[nH]c2cn1)C(F)(F)F (some centres unmarked) [Compound 360] | ≤ 20 µM | < 1 mM
22 | N=S(=O)(CC[C@H](N)C(=O)O)CCC(O)(c1cccnc1)C(F)(F)F (some centres unmarked) [Compound 361] | 20 to 2000 µM | ≥ 1 mM
23 | N=S(=O)(CC[C@H](N)C(=O)O)CCC(O)(c1ccncc1)C(F)(F)F (some centres unmarked) [Compound 362] | 20 to 2000 µM | ≥ 1 mM

Row | Structure (SMILES) | IC50 (human recombinant GCL) | EC50 (RKN cells)
24 | N=S(=O)(CC[C@H](N)C(=O)O)CCC(O)(c1ncccn1)C(F)(F)F (some centres unmarked) [Compound 363] | 20 to 2000 µM | < 1 mM
25 | N=S(=O)(CC[C@H](N)C(=O)O)CCC(O)(c1ccnc(C(F)(F)F)c1)C(F)(F)F (some centres unmarked) [Compound 364] | 20 to 2000 µM | ≥ 1 mM
26 | N=S(=O)(CC[C@H](N)C(=O)O)CCC(O)(c1ccc(C(F)(F)F)nc1)C(F)(F)F (some centres unmarked) [Compound 365] | 20 to 2000 µM | ≥ 1 mM
27 | N=S(=O)(CC[C@H](N)C(=O)O)CCC(O)(c1ccon1)C(F)(F)F (some centres unmarked) [Compound 368] | 20 to 2000 µM | < 1 mM
28 | N[C@@H](CCS(=O)(=O)CCC(O)(c1ccon1)C(F)(F)F)C(=O)O (some centres unmarked) [Compound 369] | 20 to 2000 µM | ≥ 1 mM
29 | N=S(=O)(CC[C@H](N)C(=O)O)CCC(O)(c1ccsn1)C(F)(F)F (some centres unmarked) [Compound 370] | ≤ 20 µM | < 1 mM
30 | N[C@@H](CCS(=O)(=O)CCC(O)(c1ccsn1)C(F)(F)F)C(=O)O (some centres unmarked) [Compound 371] | ≤ 20 µM | < 1 mM
31 | N=S(=O)(CC[C@H](N)C(=O)O)CCC(O)(c1ccc(Oc2ccccc2)cn1)C(F)(F)F (some centres unmarked) [Compound 372] | ≤ 20 µM | < 1 mM
32 | N=S(=O)(CC[C@H](N)C(=O)O)CCC(O)(c1ncc2ccccc2n1)C(F)(F)F (some centres unmarked) [Compound 374] | 20 to 2000 µM | < 1 mM
33 | N=S(=O)(CC[C@H](N)C(=O)O)CCC(O)(c1nsc2ccccc12)C(F)(F)F (some centres unmarked) [Compound 375] | ≤ 20 µM | < 1 mM
34 | N=S(=O)(CC[C@H](N)C(=O)O)CCC(O)(c1cc(-c2ccccc2)sn1)C(F)(F)F (some centres unmarked) [Compound 376] | ≤ 20 µM | < 1 mM
35 | N[C@@H](CCS(=O)(=O)CCC(O)(c1cc(-c2ccccc2)sn1)C(F)(F)F)C(=O)O (some centres unmarked) [Compound 377] | ≤ 20 µM | ≥ 1 mM
36 | N=S(=O)(CC[C@H](N)C(=O)O)CCC(O)(c1cc(-c2ccccc2)on1)C(F)(F)F (some centres unmarked) [Compound 378] | ≤ 20 µM | < 1 mM
37 | N=S(=O)(CC[C@H](N)C(=O)O)CCC(O)(C1CCN(c2ccc(Cl)cc2Cl)CC1)C(F)(F)F (some centres unmarked) [Compound 379] | ≤ 20 µM | < 1 mM
38 | N=S(=O)(CC[C@H](N)C(=O)O)CCC(O)(c1ccc(Oc2ccc(Cl)cc2Cl)cn1)C(F)(F)F (some centres unmarked) [Compound 380] | ≤ 20 µM | < 1 mM
39 | N=S(=O)(CCC(C1CCCCC1)C(F)(F)F)CC[C@H](N)C(=O)O (stereo partly drawn) [Compound 381, (2S)-2-amino-4-(3-cyclohexyl-4,4,4-trifluorobutylsulfonimidoyl)butanoic acid] | ≤ 20 µM | ≥ 1 mM
40 | N=S(=O)(CCC(C1CCCC1)C(F)(F)F)CC[C@H](N)C(=O)O (some centres unmarked) [Compound 382] | ≤ 20 µM | ≥ 1 mM
41 | N=S(=O)(CCC(C1CCC1)C(F)(F)F)CC[C@H](N)C(=O)O (some centres unmarked) [Compound 383] | ≤ 20 µM | ≥ 1 mM
42 | N=S(=O)(CCC(C(F)(F)F)C12CC(C1)C2)CC[C@H](N)C(=O)O (some centres unmarked) [Compound 384] | ≤ 20 µM | ≥ 1 mM
43 | N=S(=O)(CC[C@H](N)C(=O)O)CCC1(c2cccc(F)c2)CCC1 (stereo partly drawn) [Compound 385, (2S)-2-amino-4-[2-[1-(3-fluorophenyl)cyclobutyl]ethylsulfonimidoyl]butanoic acid] | 20 to 2000 µM | < 1 mM
44 | N=S(=O)(CCC(c1ccc2[nH]ncc2c1)C(F)(F)F)CC[C@H](N)C(=O)O (stereo partly drawn) [Compound 386, (2S)-2-amino-4-(4,4,4-trifluoro-3-(1H-indazol-5-yl)butylsulfonimidoyl)butanoic acid] | ≤ 20 µM | < 1 mM
45 | N=S(=O)(CC[C@H](N)C(=O)O)CCC1(c2ccccn2)CCC1 (stereo partly drawn) [Compound 387, (2S)-2-amino-4-(2-(1-(pyridin-2-yl)cyclobutyl)ethylsulfonimidoyl)butanoic acid] | 20 to 2000 µM | < 1 mM
46 | N=S(=O)(CCC(c1ccc(-c2ccccc2)cc1O)C(F)(F)F)CC[C@H](N)C(=O)O (stereo partly drawn) [Compound 391, (2S)-2-amino-4-(4,4,4-trifluoro-3-(3-hydroxy-[1,1′-biphenyl]-4-yl)butylsulfonimidoyl)butanoic acid] | ≤ 20 µM | < 1 mM
